Results from patent US20080125496A1, “ANTIMICROBIAL FLAVOR AND ORAL CARE COMPOSITION CONTAINING THE SAME” (TAKASAGO INTERNATIONAL CORPORATION, priority 2001, published 2008).
Converted amounts (≈) assume the structure as drawn. Where two headings read alike, the source gives them in different places.

How the values were obtained:
Format in all cases: cell-based
[1] = system: Streptococcus mutans JCM 5175; assay: MIC by agar plate dilution method, Su-1; details: for MIC: Streptococcus mutans, read-out: MIC Su-1 (caries-related bacteria)
Procedure: (§1) The minimum inhibitory activities of the antimicrobial flavors of the invention on anaerobic oral bacteria were measured by an agar plate dilution method.
(§2) All the test strains were obtained from Riken (The Institute of Physical and Chemical Research). The names and abbreviations of the strains are shown in Table 1 below (The abbreviations are used in the following description).
(§3) Each test microorganism kept frozen (−80° C.) in glycerol at a concentration of 25% was thawed. A 100 μl portion of the suspension was inoculated into 10 ml of a liquid medium. A Gifu university anaerobic medium (GAM) (Nissui Pharmaceutical Co., Ltd) having added thereto Hemin (Tokyo Kasei) and Menadione (Sigma) was used for Su-1 and Fn-1. Schaedler Broth (BBL) having added thereto Hemin and Menadione was used for the other strains. The culture was anaerobically incubated at 37° C. for 72 hours by using BBL Gas Pack Anaerobic System. After the cultivation, the microbial cell suspension of Su-1 was 10-fold diluted to prepare an inoculum. The cultures of Fn-1 and Pg-1 were used as such as an inoculum. The cultures of Pt-1, Aa-1, and Av-1 were subjected to centrifugation, and the separated microbial cells were suspended in 2 ml of sterilized physiological saline to prepare the respective inoculums.
(§4) An agar medium prepared by adding 2% agar (Difco), Hemin, and Menadione to Trypticase Soy Broth (BBL) was used. A test sample (antimicrobial flavor) was dissolved in ethanol to prepare 2-fold serial dilutions. To 10 ml of the agar medium was added 100 μl of each dilution and stirred well. The agar medium was transferred to a petri dish (diameter: 9 cm) and solidified at room temperature. The solidified agar medium was inoculated with 5 μl of the inoculum by means of a multipoint inoculator (Microplanter MIT-P27, supplied by Sakuma Seisakusho), followed by culturing at 37° C. for 72 hours under anaerobic conditions. The growth of the test microorganism was compared with a blank petri dish (the agar medium to which 100 μl of ethanol had been added). The lowest sample concentration that inhibited growth was taken as MIC (ppm).
(§5) Antimicrobial activities (MIC; ppm) of the aromahygiene base (AHB) prepared in (1) and the antimicrobial flavor compositions prepared in (2) (Examples 2-1 to 2-3) and Comparative Examples 2-1 to 2-3 were measured in the same manner as in Example 1 (2).

[2] = system: Prevotella intermedia JCM 6322; assay: MIC by agar plate dilution method, Pt-1; details: for MIC: Prevotella intermedia, read-out: MIC Pt-1 (paradentosis-related bacteria)
Procedure: as §1, §2, §3, §4, §5

[3] = system: Porphyromonas gingivalis JCM 8525; assay: MIC by agar plate dilution method, Pg-1; details: for MIC: Porphyromonas gingivalis, read-out: MIC Pg-1 (paradentosis-related bacteria; head Fg-1 in Tables 2 and 3)
Procedure: as §1, §2, §3, §4, §5

[4] = system: Actinomyces naeslundii JCM 8350; assay: MIC by agar plate dilution method, Aa-1; details: for MIC: Actinomyces naeslundii, read-out: MIC Aa-1 (caries-related bacteria)
Procedure: as §1, §2, §3, §4, §5

[5] = system: Actinomyces viscosus JCM 8352; assay: MIC by agar plate dilution method, Av-1; details: for MIC: Actinomyces viscosus, read-out: MIC Av-1 (caries-related bacteria)
Procedure: as §1, §2, §3, §4, §5

[6] = system: Fusobacterium nucleatum JCM 6328; assay: MIC by agar plate dilution method, Fn-1; details: for MIC: Fusobacterium nucleatum, read-out: MIC Fn-1 (paradentosis-related bacteria)
Procedure: as §1, §2, §3, §4, §5

[7] = agar medium, 37° C., 72 hours, anaerobic conditions
[8] = JCM5175, agar medium, 37° C., 72 hours, anaerobic conditions
[9] = JCM6322, agar medium, 37° C., 72 hours, anaerobic conditions
[10] = JCM8525, agar medium, 37° C., 72 hours, anaerobic conditions
[11] = JCM8350, agar medium, 37° C., 72 hours, anaerobic conditions
[12] = JCM8352, agar medium, 37° C., 72 hours, anaerobic conditions
[13] = JCM6328, agar medium, 37° C., 72 hours, anaerobic conditions

| Compound | MIC Su-1 (caries-related bacteria) [1, 7] | MIC Pt-1 (paradentosis-related bacteria) [2, 7] | MIC Pg-1 (paradentosis-related bacteria; head Fg-1 in Tables 2 and 3) [3, 7] | MIC Aa-1 (caries-related bacteria) [4, 7] | MIC Av-1 (caries-related bacteria) [5, 7] | MIC Fn-1 (paradentosis-related bacteria) [6, 7] | MIC [1, 8] | MIC [2, 9] | MIC [3, 10] | MIC [4, 11] | MIC [5, 12] | MIC [6, 13] | further results |
| --- | --- | --- | --- | --- | --- | --- | --- | --- | --- | --- | --- | --- | --- |
| COC(/C=C/c1ccccc1)OC [Cinnamic aldehyde dimethyl acetal] | 250 ppm | 62.5 ppm | <15.6 ppm | 125 ppm | 250 ppm | 500 ppm |  |  |  |  |  |  |  |
| CCCCCCCCCO [1-nonanol] |  |  |  |  |  |  | 1000 µg/mL (≈ 6930 µM) | 250 µg/mL (≈ 1730 µM) | 250 µg/mL (≈ 1730 µM) | 500 µg/mL (≈ 3470 µM) | 500 µg/mL (≈ 3470 µM) | 500 µg/mL (≈ 3470 µM) |  |
| C=CCCCCCCCCO [9-decen-1-ol] |  |  |  |  |  |  | 1000 µg/mL (≈ 6400 µM) | 62.5 µg/mL (≈ 400 µM) | 125 µg/mL (≈ 800 µM) | 250 µg/mL (≈ 1600 µM) | 250 µg/mL (≈ 1600 µM) | 250 µg/mL (≈ 1600 µM) |  |
| CC(=O)c1cc2c(cc1C)C(C)(C)C(C)C2(C)C (stereo not drawn) [Phantolid] | >1000 ppm | 62.5 ppm | 31.3 ppm | >1000 ppm | >1000 ppm | >1000 ppm |  |  |  |  |  |  |  |
| CC(=O)c1cc2c(cc1C)C(C)(C)C(C)CC2(C)C (stereo not drawn) [Tonalid] |  |  |  |  |  |  |  |  |  |  |  |  | MIC ([1]; JCM5175, 72 h): > 1000 µg/mL; MIC ([2]; JCM6322, 72 h): 62.5 µg/mL (≈ 242 µM); MIC ([3]; JCM8525, 72 h): 15.6 µg/mL (≈ 60.4 µM); MIC ([4]; JCM8350, 72 h): > 1000 µg/mL; MIC ([5]; JCM8352, 72 h): > 1000 µg/mL; MIC ([6]; JCM6328, 72 h): > 1000 µg/mL |
| CCCCCCCCCCCC=O [Dodecanal] |  |  |  |  |  |  | 500 µg/mL (≈ 2710 µM) | 62.5 µg/mL (≈ 339 µM) | 62.5 µg/mL (≈ 339 µM) | 500 µg/mL (≈ 2710 µM) | 500 µg/mL (≈ 2710 µM) | 125 µg/mL (≈ 678 µM) |  |

Second part, led by results:

| MIC Su-1 (caries-related bacteria) [1, 7] | MIC Pt-1 (paradentosis-related bacteria) [2, 7] | MIC Pg-1 (paradentosis-related bacteria; head Fg-1 in Tables 2 and 3) [3, 7] | MIC Aa-1 (caries-related bacteria) [4, 7] | MIC Av-1 (caries-related bacteria) [5, 7] | MIC Fn-1 (paradentosis-related bacteria) [6, 7] | MIC [1, 8] | MIC [2, 9] | MIC [3, 10] | MIC [4, 11] | MIC [5, 12] | MIC [6, 13] | Compound | further results |
| --- | --- | --- | --- | --- | --- | --- | --- | --- | --- | --- | --- | --- | --- |
| 250 ppm | 62.5 ppm | 7.8 ppm | 250 ppm | 250 ppm | 250 ppm |  |  |  |  |  |  | COc1ccccc1C=CC=O [o-Methoxycinnamic aldehyde] |  |
| 500 ppm | 62.5 ppm | 62.5 ppm | 250 ppm | 125 ppm | 250 ppm |  |  |  |  |  |  | CCC(O)/C(C)=C/C1(C)CC2C=CC1C2 (stereo not drawn) [Methyl sandeflor] |  |
| >1000 ppm | 31.3 ppm | 31.3 ppm | >1000 ppm | >1000 ppm | >1000 ppm |  |  |  |  |  |  | CC1(C)CCC[C@]2(C)[C@H]3CCO[C@]3(C)CC[C@@H]12 [Ambroxan] |  |
| 1000 ppm | 250 ppm | 62.5 ppm | 250 ppm | 250 ppm | 1000 ppm |  |  |  |  |  |  | CC(C)Cc1ccc2ncccc2c1 [Isobutyl quinoline] |  |
| 250 ppm | 31.3 ppm | 31.3 ppm | 125 ppm | 125 ppm | 250 ppm |  |  |  |  |  |  | CC1=CCC(CCC(C)CO)C1(C)C (stereo not drawn) [Brahmanol] |  |
|  |  |  |  |  |  | > 1000 µg/mL | 31.3 µg/mL (≈ 141 µM) | 31.3 µg/mL (≈ 141 µM) | > 1000 µg/mL | > 1000 µg/mL | > 1000 µg/mL | C[C@@H]1CC[C@H]2C(C)(C)[C@H]3C[C@@]12CC[C@@]3(C)O [Cedrol] |  |
| 250 ppm | 31.3 ppm | 31.3 ppm | 125 ppm | 125 ppm | 125 ppm |  |  |  |  |  |  | CC1=CCC(CCC(C)C(C)O)C1(C)C (stereo not drawn) [Sandalore] |  |
